Source: patent US10550073B2, “Benzamide derivative” (CSPC ZHONGQI PHARMACEUTICAL TECHNOLOGY (SHIJIAZHUANG) CO., …, priority 2015, dated 2020)

Tests used:
p38a = p38a (Homo sapiens (Human), UniProt Q16539); experiment: Assay of p38 kinase activity (fluorescence, peptide substrate); assay type: biochemical; settings: 40 nM p38a, 100 μM ATP, 90 minutes
Procedure: II. Assay of p38 Kinase Activity
Experimental Method: 40 nM p38a was added into a reaction buffer, which include 20 mM HEPES (4-hydroxyethylpiperazine ethanesulfonic acid), 5 mM MgCl2 and 1 mM DTT (dithiothreitol) at pH 7.4. 40 μM phosphorylated peptide substrate was added, followed by different concentrations of drugs and 100 μM ATP (adenosine triphosphate), and reacted for 90 minutes in dark. […] The IC50 values of the compounds were obtained according to the fluorescence values.

TNF-α = experiment: In vitro cell experiment: LPS-stimulated TNF-α release in THP-1 cells (ELISA); assay type: cell-based; settings: Homo sapiens; TNF-α in supernatant of THP-1 cells, compound 2 h then LPS 10 μg/ml 2 h
Text: I. In Vitro Cell Experiment
Cells: human monocytic leukemia THP-1 cells (obtained from the Shanghai Cell Bank of Chinese Academy of Sciences).
Lipopolysaccharides: from Escherichia coli O55: B5, L2880 (Sigma).
Kit: Human TNF-α Elisa MAX Deluxe Set, 430206 (Biolegend)

CYP450, 2C9 enzymes = CYP450, 2C9 enzymes (Homo sapiens (Human), UniProt P11712); experiment: CYP450 enzyme inhibition test in human liver microsome; assay type: in vitro ADME; settings: CYP450 2C9, LC-MS/MS
[1] = Pharmacokinetics experiment, oral administration to SD rats; assay type: in vivo; settings: Sprague-Dawley (SD), rat, plasma
Procedure: IV. Pharmacokinetics Experiment
Experimental Method: SD rats were orally administrated the compounds and the blood samples were taken from the eye orbit of the rat sat different time intervals after administration (0.25, 0.5, 1, 2, 4, 6, 8, 24, 48 h). The collected whole blood was anticoagulant by EDTA (Ethylene Diamine Tetraacetic Acid Sodium) and 3000 g of samples were centrifugated to obtain the rats' plasma samples, methanol or ethanol was used to precipitate proteins, the drug concentration of the rats' plasma samples was determined, the drug concentration-time curve was plotted to calculate the pharmacokinetic parameters. The pharmacokinetic behavior in rats after administration was described by non-compartmental models statistical moment parameter.
The pharmacokinetic experiments were carried out for the compounds.

Sequence of p38a (Q16539 whole entry): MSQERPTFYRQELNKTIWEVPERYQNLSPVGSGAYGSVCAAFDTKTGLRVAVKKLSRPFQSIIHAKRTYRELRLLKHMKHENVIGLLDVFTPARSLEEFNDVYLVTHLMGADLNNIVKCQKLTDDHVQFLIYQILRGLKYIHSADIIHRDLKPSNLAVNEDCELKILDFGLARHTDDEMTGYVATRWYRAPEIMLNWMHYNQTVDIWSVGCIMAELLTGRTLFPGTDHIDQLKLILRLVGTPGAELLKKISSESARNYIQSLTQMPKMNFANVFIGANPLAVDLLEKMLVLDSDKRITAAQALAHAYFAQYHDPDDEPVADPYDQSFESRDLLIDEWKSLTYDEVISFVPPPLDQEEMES
Sequence of CYP450, 2C9 enzymes (P11712 whole entry): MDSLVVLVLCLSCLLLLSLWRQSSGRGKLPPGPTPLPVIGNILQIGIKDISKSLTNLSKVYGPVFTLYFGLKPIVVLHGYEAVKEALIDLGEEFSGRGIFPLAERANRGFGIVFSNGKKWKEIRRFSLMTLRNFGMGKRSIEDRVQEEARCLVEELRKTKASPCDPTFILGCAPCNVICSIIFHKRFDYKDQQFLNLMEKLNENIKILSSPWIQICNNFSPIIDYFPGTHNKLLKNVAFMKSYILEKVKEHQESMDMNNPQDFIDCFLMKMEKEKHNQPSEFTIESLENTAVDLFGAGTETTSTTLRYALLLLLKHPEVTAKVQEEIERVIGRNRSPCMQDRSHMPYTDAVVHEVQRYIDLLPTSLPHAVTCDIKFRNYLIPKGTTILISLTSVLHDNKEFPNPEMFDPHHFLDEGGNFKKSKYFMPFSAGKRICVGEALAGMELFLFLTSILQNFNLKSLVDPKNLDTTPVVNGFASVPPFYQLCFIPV

| IC50 (p38a) | IC50 (TNF-α) | IC50 (CYP450, 2C9 enzymes) | AUC(0-t) [1] | Compound |
| --- | --- | --- | --- | --- |
| < 5 nM | < 5 nM | > 50000 nM | – | Cc1c(F)cc(C(=O)NC2CC2)cc1-c1ccc(C(=O)NC2CCCC2)nn1 [Example 4] |
| < 5 nM | 5 to 10 nM | > 50000 nM | – | Cc1c(F)cc(C(=O)NC2CC2)cc1-c1ccc(C(=O)N(C)CC(C)C)nn1 [Example 3] |
| < 5 nM | < 5 nM | > 50000 nM | – | Cc1c(F)cc(C(=O)NC2CC2)cc1-c1ccc(C(=O)NC2CCCCC2)nn1 [Example 5, N-cyclohexyl-6-(5-(cyclopropylcarbamoyl)-3-fluoro-2-methylphenyl) pyridazin-3-carboxamide] |
| < 5 nM | < 5 nM | > 50000 nM | 11300 ng·h/mL | Cc1c(F)cc(C(=O)NC2CC2)cc1-c1ccc(C(=O)NCC(C)(C)C)nn1 [Example 59, 6-(5-(cyclopropylcarbamoyl)-3-fluoro-2-methylphenyl)-N-neopentylpyridazin-3-carboxamide] |
| < 5 nM | < 5 nM | > 50000 nM | – | Cc1c(F)cc(C(=O)NC2CC2)cc1-c1ccc(C(=O)N(C)CC(C)C)nc1 [Example 16, 5-(5-(cyclopropylcarbamoyl)-3-fluoro-2-methylphenyl)-N-isobutyl-N-methylpyridin-2-formamide] |
| < 5 nM | < 5 nM | > 50000 nM | – | CCC(C)NC(=O)c1ccc(-c2cc(C(=O)NC3CC3)cc(F)c2C)nn1 (stereo not shown) [Example 58, 6-(5-(cyclopropylcarbamoyl)-3-fluoro-2-methylphenyl)-N-(sec-butyl)pyridazin-3-carboxamide] |
| 5 to 10 nM | < 5 nM | > 50000 nM | – | Cc1cc(-c2cc(C(=O)NC3CC3)cc(F)c2C)ccc1C(=O)NCC(C)C [Example 44, N^3-cyclopropyl-5-fluoro-N^4′-isobutyl-3′,6-dimethyl-[1,1′-biphenyl]-3,4′-dicarboxamide] |
| < 5 nM | < 5 nM | > 50000 nM | 22100 ng·h/mL | Cc1c(F)cc(C(=O)NC2CC2)cc1-c1ccc(C(=O)NCC(C)C)nn1 [Example 57, 6-(5-(cyclopropylcarbamoyl)-3-fluoro-2-methylphenyl)-N-isobutylpyridazin-3-carboxamide] |
| – | 5 to 10 nM | > 50000 nM | – | Cc1c(F)cc(C(=O)NC2CC2)cc1-c1ccc(C(=O)NCC(C)(C)C)c(N)c1 [Example 42, 3′-amino-N^3-cyclopropyl-5-fluoro-6-methyl-N^4′-neo pentyl-[1,1′-biphenyl]-3,4′ -dicarboxamide] |
| < 5 nM | < 5 nM | > 50000 nM | 12200 ng·h/mL | Cc1c(F)cc(C(=O)NC2CC2)cc1-c1ccc(C(=O)NCC2CC2)nn1 [Example 61, 6-(5-(cyclopropylcarbamoyl)-3-fluoro-2-methylphenyl)-N-(cyclopropylmethyl) pyridazin-3-carboxamide] |

| Compound | IC50 (p38a) | IC50 (TNF-α) | IC50 (CYP450, 2C9 enzymes) | AUC(0-t) [1] |
| --- | --- | --- | --- | --- |
| Cc1c(F)cc(C(=O)NC2CC2)cc1-c1ccc(C(=O)NCC(C)(C)C)cn1 [Comparative example, 6-(5-(cyclopropylcarbamoyl)-3-fluoro-2-methylphenyl)-N-neopentylnicotinamide, reference compound] | – | 10 to 20 nM | – | 9630 ng·h/mL |
